Experimental findings from ChEMBL document CHEMBL4433223, “Treatment of Prostate Cancers and Kennedy's Disease by PROTAC-Androgen Receptor Degradation” (ACS Med Chem Lett, 2019) are described below.

The structures appear in SMILES notation. Some results are limits rather than exact numbers.

Test system in the first series: not listed separately
In words: Cmax in CD1 mouse at 10 mg/kg, sc by LC/MS/MS analysis. The series is classed as ADME, organism-based. The arrangement: dose 10 mg/kg, route subcutaneous. The following applies: in vivo.
In turn, `Cc1ncsc1-c1ccc(CNC(=O)[C@@H]2C[C@@H](O)CN2C(=O)[C@@H](NC(=O)COCCc2ccc(-c3ccc(C(=O)N[C@H]4C(C)(C)[C@H](Oc5ccc(C#N)c(Cl)c5)C4(C)C)cc3)cc2)C(C)(C)C)cc1` came in with a Cmax of 1530 ng/mL.
On the same count and under the same terms, for `Cc1ncsc1-c1ccc([C@H](C)NC(=O)[C@@H]2C[C@@H](O)CN2C(=O)[C@@H](NC(=O)COCCCCCOc2ccc(C(=O)N[C@H]3C(C)(C)[C@H](Oc4ccc(C#N)c(Cl)c4)C3(C)C)cc2)C(C)(C)C)cc1` the value was 1900 ng/mL.
`Cc1ncsc1-c1ccc(CNC(=O)[C@@H]2C[C@@H](O)CN2C(=O)[C@@H](NC(=O)COCCCOCCCCCOc2ccc(N3C(=O)N(c4ccc(C#N)c(C(F)(F)F)c4)C(=O)C3(C)C)cc2)C(C)(C)C)cc1` showed a Cmax of 1150 ng/mL.

Another series addresses T1, von Hippel-Lindau disease tumor suppressor/Androgen receptor (Homo sapiens, UniProt P10275+P40337). The series is described as follows: Protac activity against VHL/AR in human VCAP cells assessed as induction of AR degradation incubated for 24 hrs by ELISA relative to untreated control.
Details: not given
In kind it is cell-based.
Target sequence in this assay (P10275 whole entry, looked up): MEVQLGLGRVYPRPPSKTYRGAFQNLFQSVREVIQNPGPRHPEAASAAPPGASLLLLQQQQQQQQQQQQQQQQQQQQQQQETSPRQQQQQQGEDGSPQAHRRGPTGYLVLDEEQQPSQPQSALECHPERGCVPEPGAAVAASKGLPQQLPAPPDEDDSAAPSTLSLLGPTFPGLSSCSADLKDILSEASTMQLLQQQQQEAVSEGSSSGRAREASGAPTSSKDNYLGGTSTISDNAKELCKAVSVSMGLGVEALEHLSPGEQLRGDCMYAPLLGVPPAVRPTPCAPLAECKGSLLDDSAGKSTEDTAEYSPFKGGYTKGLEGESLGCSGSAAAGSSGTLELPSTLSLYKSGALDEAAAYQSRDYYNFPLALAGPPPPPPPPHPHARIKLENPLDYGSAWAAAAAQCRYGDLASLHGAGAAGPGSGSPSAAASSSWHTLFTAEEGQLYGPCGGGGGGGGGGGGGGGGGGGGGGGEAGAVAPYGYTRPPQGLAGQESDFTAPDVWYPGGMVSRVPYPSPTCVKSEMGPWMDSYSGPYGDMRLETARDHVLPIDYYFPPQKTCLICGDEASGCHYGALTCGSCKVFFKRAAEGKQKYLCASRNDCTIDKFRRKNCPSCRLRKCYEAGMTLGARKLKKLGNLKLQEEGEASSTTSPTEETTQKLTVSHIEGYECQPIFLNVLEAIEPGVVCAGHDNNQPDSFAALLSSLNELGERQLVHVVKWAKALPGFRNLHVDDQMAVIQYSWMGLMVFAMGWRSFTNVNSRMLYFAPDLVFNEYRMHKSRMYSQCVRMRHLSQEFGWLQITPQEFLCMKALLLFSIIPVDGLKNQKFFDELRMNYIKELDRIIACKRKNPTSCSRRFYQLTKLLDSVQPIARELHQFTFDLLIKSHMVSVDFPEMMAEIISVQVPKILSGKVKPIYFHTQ
Target sequence in this assay (P40337 whole entry, looked up): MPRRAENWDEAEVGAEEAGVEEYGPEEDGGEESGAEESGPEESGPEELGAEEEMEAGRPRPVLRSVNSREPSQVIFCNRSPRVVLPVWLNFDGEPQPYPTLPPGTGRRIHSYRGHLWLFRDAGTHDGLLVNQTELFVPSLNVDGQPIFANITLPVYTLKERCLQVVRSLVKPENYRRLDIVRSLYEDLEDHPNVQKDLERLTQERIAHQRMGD
As to `Cc1ncsc1-c1ccc(CNC(=O)[C@@H]2C[C@@H](O)CN2C(=O)[C@@H](NC(=O)COCCCOCCCCCOc2ccc(N3C(=O)N(c4ccc(C#N)c(C(F)(F)F)c4)C(=O)C3(C)C)cc2)C(C)(C)C)cc1`, the Emax was 51 to 70%.
Same read-out and setting: for `Cc1ncsc1-c1ccc(CNC(=O)[C@@H]2C[C@@H](O)CN2C(=O)[C@@H](NC(=O)COCCCOCCN2CCC(c3ccc(N4C(=S)N(c5ccc(C#N)c(C(F)(F)F)c5)C(=O)C4(C)C)cc3)CC2)C(C)(C)C)cc1` the value was 26 to 50%.

Another series has as its target T1, von Hippel-Lindau disease tumor suppressor/Androgen receptor. The series is described as follows: Protac activity against VHL/AR in human LNCAP cells assessed as induction of AR degradation incubated for 24 hrs by ELISA.
Details: not given
The series is classed as cell-based.
Target sequence in this assay (P10275 whole entry): as the sequence (P10275 whole entry, looked up) above
Target sequence in this assay (P40337 whole entry): as the sequence (P40337 whole entry, looked up) above
On to `Cc1ncoc1-c1ccc(CNC(=O)[C@@H]2C[C@@H](O)CN2C(=O)[C@@H](NC(=O)COCc2ccc(OC(=O)N[C@H]3C(C)(C)[C@H](Oc4ccc(C#N)c(Cl)c4)C3(C)C)cc2)C(C)(C)C)cc1`, for which the DC50 was no more than 50 nM.
The same measure, in the same setting: then `Cc1ncsc1-c1ccc(CNC(=O)[C@@H]2C[C@@H](O)CN2C(=O)[C@@H](NC(=O)COCCc2ccc(-c3ccc(C(=O)N[C@H]4C(C)(C)[C@H](Oc5ccc(C#N)c(Cl)c5)C4(C)C)cc3)cc2)C(C)(C)C)cc1`, with no more than 50 nM.
Same read-out and setting: for `Cc1ncsc1-c1ccc([C@H](C)NC(=O)[C@@H]2C[C@@H](O)CN2C(=O)[C@@H](NC(=O)COCCCCCOc2ccc(C(=O)N[C@H]3C(C)(C)[C@H](Oc4ccc(C#N)c(Cl)c4)C3(C)C)cc2)C(C)(C)C)cc1` the value was no more than 50 nM; for `Cc1ncsc1-c1ccc(CNC(=O)[C@@H]2C[C@@H](O)CN2C(=O)[C@@H](NC(=O)COCCCOCCCCCOc2ccc(N3C(=O)N(c4ccc(C#N)c(C(F)(F)F)c4)C(=O)C3(C)C)cc2)C(C)(C)C)cc1`, no more than 50 nM; for `CC(C)(C)[C@H](NC(=O)COCCCCCOc1ccc(C(=O)N[C@H]2C(C)(C)[C@H](Oc3ccc(C#N)c(Cl)c3)C2(C)C)cc1)C(=O)N1C[C@H](O)C[C@H]1C(=O)NCc1ccc(-c2cncs2)cc1`, no more than 50 nM.
The same measure, in the same setting: then `Cc1ncsc1-c1ccc(CNC(=O)[C@@H]2C[C@@H](O)CN2C(=O)[C@@H](NC(=O)COCCCOCCN2CCC(c3ccc(N4C(=S)N(c5ccc(C#N)c(C(F)(F)F)c5)C(=O)C4(C)C)cc3)CC2)C(C)(C)C)cc1`, with no more than 501 nM.

The next series shares this target. The series is described as follows: Protac activity against VHL/AR in human VCAP cells assessed as induction of AR degradation incubated for 24 hrs by ELISA. The series is classed as cell-based.
Details: not given
Target sequence in this assay (P10275 whole entry): as the sequence (P10275 whole entry, looked up) above
Target sequence in this assay (P40337 whole entry): as the sequence (P40337 whole entry, looked up) above
In the case of `Cc1ncsc1-c1ccc(CNC(=O)[C@@H]2C[C@@H](O)CN2C(=O)[C@@H](NC(=O)COCCCOCCCCCOc2ccc(N3C(=O)N(c4ccc(C#N)c(C(F)(F)F)c4)C(=O)C3(C)C)cc2)C(C)(C)C)cc1`, the DC50 is no more than 50 nM.

Test system in another series: not listed separately
The series is described as follows: AUC (0 to 24 hrs) in CD1 mouse at 10 mg/kg, sc by LC/MS/MS analysis. In kind it is ADME, organism-based. Details: dose 10 mg/kg, time < 24 hr, route subcutaneous. The following applies: in vivo.
With `Cc1ncoc1-c1ccc(CNC(=O)[C@@H]2C[C@@H](O)CN2C(=O)[C@@H](NC(=O)COCc2ccc(OC(=O)N[C@H]3C(C)(C)[C@H](Oc4ccc(C#N)c(Cl)c4)C3(C)C)cc2)C(C)(C)C)cc1`, the AUC(0-t) at 24 h is 15600 to 40200 ng·h/mL.
Still for that read-out and setting: then `Cc1ncsc1-c1ccc(CNC(=O)[C@@H]2C[C@@H](O)CN2C(=O)[C@@H](NC(=O)COCCc2ccc(-c3ccc(C(=O)N[C@H]4C(C)(C)[C@H](Oc5ccc(C#N)c(Cl)c5)C4(C)C)cc3)cc2)C(C)(C)C)cc1`, with 15600 to 40200 ng·h/mL.
Same read-out and setting: for `Cc1ncsc1-c1ccc([C@H](C)NC(=O)[C@@H]2C[C@@H](O)CN2C(=O)[C@@H](NC(=O)COCCCCCOc2ccc(C(=O)N[C@H]3C(C)(C)[C@H](Oc4ccc(C#N)c(Cl)c4)C3(C)C)cc2)C(C)(C)C)cc1` the value was 15600 to 40200 ng·h/mL; for `Cc1ncsc1-c1ccc(CNC(=O)[C@@H]2C[C@@H](O)CN2C(=O)[C@@H](NC(=O)COCCCOCCCCCOc2ccc(N3C(=O)N(c4ccc(C#N)c(C(F)(F)F)c4)C(=O)C3(C)C)cc2)C(C)(C)C)cc1`, 15600 to 40200 ng·h/mL; for `CC(C)(C)[C@H](NC(=O)COCCCCCOc1ccc(C(=O)N[C@H]2C(C)(C)[C@H](Oc3ccc(C#N)c(Cl)c3)C2(C)C)cc1)C(=O)N1C[C@H](O)C[C@H]1C(=O)NCc1ccc(-c2cncs2)cc1`, 15600 to 40200 ng·h/mL.
Take `Cc1ncsc1-c1ccc(CNC(=O)[C@@H]2C[C@@H](O)CN2C(=O)[C@@H](NC(=O)COCCCOCCN2CCC(c3ccc(N4C(=S)N(c5ccc(C#N)c(C(F)(F)F)c5)C(=O)C4(C)C)cc3)CC2)C(C)(C)C)cc1`: the AUC(0-t) at 24 h lay in the range of 15600 to 40200 ng·h/mL.

A further series addresses T1, von Hippel-Lindau disease tumor suppressor/Androgen receptor. The series is described as follows: Protac activity against VHL/AR in human LNCAP cells assessed as induction of AR degradation incubated for 24 hrs by ELISA relative to untreated control. The series is classed as cell-based.
Details: not given
Target sequence in this assay (P10275 whole entry, looked up): as the sequence (P10275 whole entry, looked up) above
Target sequence in this assay (P40337 whole entry, looked up): as the sequence (P40337 whole entry, looked up) above
Take `Cc1ncoc1-c1ccc(CNC(=O)[C@@H]2C[C@@H](O)CN2C(=O)[C@@H](NC(=O)COCc2ccc(OC(=O)N[C@H]3C(C)(C)[C@H](Oc4ccc(C#N)c(Cl)c4)C3(C)C)cc2)C(C)(C)C)cc1`: the Emax was greater than 71%.
For the molecule `Cc1ncsc1-c1ccc(CNC(=O)[C@@H]2C[C@@H](O)CN2C(=O)[C@@H](NC(=O)COCCc2ccc(-c3ccc(C(=O)N[C@H]4C(C)(C)[C@H](Oc5ccc(C#N)c(Cl)c5)C4(C)C)cc3)cc2)C(C)(C)C)cc1`, the Emax is greater than 71%.
The same measure, in the same setting: then `Cc1ncsc1-c1ccc([C@H](C)NC(=O)[C@@H]2C[C@@H](O)CN2C(=O)[C@@H](NC(=O)COCCCCCOc2ccc(C(=O)N[C@H]3C(C)(C)[C@H](Oc4ccc(C#N)c(Cl)c4)C3(C)C)cc2)C(C)(C)C)cc1`, with greater than 71%.
With `Cc1ncsc1-c1ccc(CNC(=O)[C@@H]2C[C@@H](O)CN2C(=O)[C@@H](NC(=O)COCCCOCCCCCOc2ccc(N3C(=O)N(c4ccc(C#N)c(C(F)(F)F)c4)C(=O)C3(C)C)cc2)C(C)(C)C)cc1`, the Emax was greater than 71%.
On to `CC(C)(C)[C@H](NC(=O)COCCCCCOc1ccc(C(=O)N[C@H]2C(C)(C)[C@H](Oc3ccc(C#N)c(Cl)c3)C2(C)C)cc1)C(=O)N1C[C@H](O)C[C@H]1C(=O)NCc1ccc(-c2cncs2)cc1`, for which the Emax is greater than 71%.
On the same count and under the same terms, for `Cc1ncsc1-c1ccc(CNC(=O)[C@@H]2C[C@@H](O)CN2C(=O)[C@@H](NC(=O)COCCCOCCN2CCC(c3ccc(N4C(=S)N(c5ccc(C#N)c(C(F)(F)F)c5)C(=O)C4(C)C)cc3)CC2)C(C)(C)C)cc1` the value was 51 to 70%.
